Measured values reported in patent US8821887B2, “T-cell antigen peptide from allergen for stimulation of IL-10 production” (Circassia Limited, priority 2008, dated 2014).
Non-standard residues stand in square brackets, D forms with d. No end group written: not given here. 5‑aminobutyric acid = not defined here

Test system: PBMC's
Assay: Cytokine release assay (IL-10 release from PBMCs, ELISA or multiplex bead array)
Assay type: cell-based
Settings: 5 days stimulation
Experimental: FIGS. 1 and 2 show mean IL-10 release (y axis, pg/ml) in response to the house dust mite peptides shown on the x axis, for a population of dust mite allergic individuals.
FIGS. 3 and 4 show mean IL-10 release (y axis, pg/ml) in response to the ragweed peptides shown on the x axis, for a population of ragweed allergic individuals.
Cytokine secretion profiles from PBMC's are analysed in response to the peptide stimulation using the peptides from Examples 1 and 2. Supernatants from the cytokine release assay were tested for the presence of IL-10, using either an ELISA assay or a multiplex bead array assay. A typical cytokine release assay requires 40×10^6 PBMC's per subject. In more detail, 250 μl of a 200 μg/ml solution of the appropriate antigen or peptide concentration is distributed into the appropriate wells of 48 well plates. Plates are then incubated in a humidified 5% CO2 incubator at 37° C. for a maximum of 4 hours. 250 μl of a 5×10^6 cell/ml PBMC suspension is then added to each well and the plates returned to the incubator for 5 days. Following stimulation, samples of culture supernatant are harvested for testing by ELISA or multiplex bead assay according to standard protocols.

[1] = house dust mite peptides of Example 1, PBMCs of dust mite allergic individuals, FIGS. 1 and 2
[2] = ragweed peptides of Example 2, PBMCs of ragweed allergic individuals, FIGS. 3 and 4

| Sequence | IL-10 production compared with other peptides [1] | IL-10 release compared with whole allergen [1] | IL-10 production compared with other peptides [2] | IL-10 release compared with whole allergen [2] |
| --- | --- | --- | --- | --- |
| DEFKNRFLMSAEAFE [HDM202] | higher IL-10 production than other peptides | higher IL-10 release than whole allergen | – | – |
| ELVDSASQHG (Description of Artificial Sequence: Synthetic HDM03W peptide) | higher IL-10 production than other peptides | higher IL-10 release than whole allergen | – | – |
| EQELVDSASQHG [HDM03V] | higher IL-10 production than other peptides | – | – | – |
| GEAAIKLTSSAGVLS [RGW07] | – | – | higher IL-10 production than other peptides | – |
| GESALSLTSSAGVLS [RGW07B] | – | – | higher IL-10 production than other peptides | – |
| KGEAAIKLTSSAGVLSK [RGW07C] | – | – | higher IL-10 production than other peptides | – |
| KGEAAIKLTSSAGVLSKK [RGW07D] | – | – | higher IL-10 production than other peptides | higher IL-10 release than whole allergen |
| RNQSLDLAEQELVD ? ASQH (RNQSLDLAEQELVD[5‑aminobutyric acid]ASQH; not fully specified; reading uncertain) [HDM03E, character = 2-aminobutryic acid] | higher IL-10 production than other peptides | higher IL-10 release than whole allergen | – | – |
| RNQSLDLAEQELVDSASQH (Description of Artificial Sequence: Synthetic HDM03D peptide) | higher IL-10 production than other peptides | – | – | – |
